The subject of one data set is VEGF. Put plainly: VEGF ELISA Assay in HEK293 cells. The following applies: Homo sapiens. The format is cell-based. The protocol: HEK293 cells are seeded in 96-well poly-lysine coated plates at 20,000 cells per well in DMEM (10% FBS, 1% NEAA, 0.1% glutamine). Following overnight incubation, the cells are washed with 100 μL of Opti-MEM (Gibco, Carlsbad, Calif.) to remove serum. Compound in DMSO is serially diluted (beginning with 100 μM) in Opti-MEM and added to the cells. The conditioned media is analyzed for VEGF with a Quantikine human VEGF immunoassay kit (R&D Systems, Minneapolis, Minn.). Optical density measurements at 450 nm are recorded using the Spectra Max 250 (Molecular Devices, Sunnyvale, Calif.). Data defined as % of DFO stimulation is used to calculate EC50 values with GraphPad Prism 4 software (San Diego, Calif.).
A general note: ELISA stands for enzyme-linked immunosorbent assay.

A short description of data set [1]: Solubility of salts in distilled deionized water (HPLC). The format is physicochemical. The procedure:
The formulator can determine the solubility of the pharmaceutically acceptable salts of the disclosed inhibitors by any method desirable. The following is a non-limiting example of a procedure for evaluating the solubility of a salt of a disclosed inhibitor. A suspension of tert-butyl-{[1-(4-chlorobenzyl)-3-hydroxy-2-oxo-1,2-dihydropyridin-4-yl]methyl}-piperazine-1-carboxylate methanesulfonate (26.6 mg) in distilled deionized water (3.0 mL) is sonicated for 20 min with water bath temperature under 25° C. The suspension is filtered to remove any insoluble salt. The clear filtrate solution (200 μL) is diluted with distilled deionized water (800 μL) and subjected to HPLC analysis. The following are results for the pharmaceutically acceptable salts outlined in Table VII above.

The test system of a further data set is Staphylococcus aureus. The following applies: dose-dependent; cited from earlier work.
Another data set deals with S. aureus. As to conditions: murine model of S. aureus skin infection; cited from earlier work.
In data set [2] the test system is phosphoglycerate kinase (PGK) expression. As to the kind of experiment: PGK expression in murine embryonic fibroblasts. The format is cell-based. The following applies: wild type murine embryonic fibroblasts, 1 μM and 10 μM (FIG. 12). The protocol: FIG. 11 depicts the up regulation of phosphoglycerate kinase (PGK) expression in wild type murine embryonic fibroblasts as a result of treatment with compound a compound disclosed in Table VIII at dosages of 1 μM (E), 10 μM (F), and 50 μM (G) vs. wild type control (H) and the lack of up regulation of PGK expression in HIF-1 knock out cells as a result of treatment with a compound disclosed in Table VIII at dosages of 1 μM (A), 10 μM (B), and 50 μM (C) and HIF-1 knock out control (D). Both cell types were treated for 7 hours.

A further data set deals with EPO. Put plainly: Mouse Serum EPO Assay. The format is in vivo. The procedure: All animal work is conducted in accordance with the Guide for the Care and Use of Laboratory Animals (National Academy of Sciences; Copyright © 1996). Used in these experiments were 9-10 week old male C57Bl/6 mice from Charles River Laboratory (Portage, Mich.). The mice are orally dosed with vehicle (aqueous carbonate buffer, 50 mM; pH 9.0) or with the compound to be tested in vehicle at 50 mg/kg or 100 mg/kg. The animals are dosed three times: day 1 at 8 AM and 5 PM, and on day 2 at 8 AM. One hour after the first dose, unilateral arterial ligation is performed under anesthesia using isoflurane. The femoral artery is ligated proximal to the origin of the popliteal artery. The contralateral limb undergoes a sham surgical procedure. Ligation is performed in an alternating fashion between right and left hindlimbs. Two hours after the 8 AM dosing on day 2, blood is obtained by ventricular stick while the mice are anesthetized with isoflurane. Serum samples for EPO analysis are obtained using gel clot serum separation tubes. Heart, liver, and gastrocnemius muscles are harvested, snap-frozen in liquid nitrogen, and stored in −80° C. until use.
The mouse serum EPO is detected using Mouse Quantikine Erythropoietin ELISA kit from R&D Systems according to manufacturer's instructions.

The mark [3] stands for this setting: HEK293 cells, head prints IC50, method calculates EC50 from % of DFO stimulation, read-out: VEGF IC50.

Each structure is given as a SMILES string. Structures can show the parent of a compound that is named as a salt. Where two headings read alike, the source gives them in different places. Some results are limits rather than exact numbers.

Usually IC50 stands for the point on the concentration scale where inhibition reaches its midpoint. With `Cc1ccc(S(=O)(=O)n2ccc(CN3CCC(N4CCCCC4)CC3)c(O)c2=O)cc1` [Compound D10, 1-[(4-methylphenyl)sulfonyl]-3-hydroxy-4-(1,4′-bipiperidin-1′-ylmethyl)pyridin-2(1H)-one], the IC50 in the data set on VEGF (setting [3]) was 27 µM.

As for `Cc1ccc(S(=O)(=O)n2ccc(CN3CCN(c4ccc(Cl)nn4)CC3)c(O)c2=O)cc1` [Compound D14, 1-[(4-methylphenyl)sulfonyl]-3-hydroxy-4-{[4-(6-chloropyridazin-3-yl)piperazin-1-yl]methyl}pyridin-2(1H)-one], in the data set on VEGF (setting [3]), the IC50 is 19 µM.

As to `COC[C@H]1CCCN1Cc1ccn(Cc2ccccc2)c(=O)c1O` [Compound B5, (R)-1-benzyl-3-hydroxy-4-{[2-(methoxymethyl)pyrrolidin-1-yl]methyl}pyridin-2(1H)-one], the IC50 with VEGF (setting [3]) was 53 µM.

In the case of `O=c1c(O)c(CN2CCN(c3ccc(Cl)nn3)CC2)ccn1Cc1ccccc1` [Compound B14, 1-benzyl-3-hydroxy-4-{[4-(6-chloropyridazin-3-yl)piperazin-1-yl]methyl}pyridin-2(1H)-one], the IC50 in the data set on VEGF (setting [3]) is 78 µM.

Turning to `O=C1NCCCCC1NCc1ccn(Cc2ccccc2)c(=O)c1O` (centres unmarked) [Compound C19, 3-[(1-benzyl-3-hydroxy-2-oxo-1,2-dihydropyridin-4-yl)methylamino]azepan-2-one], the IC50 in the data set with VEGF (setting [3]) is 62.9 µM.

Usually Solubility stands for the dissolved amount per volume that the medium holds. Regarding `CC(C)(C)OC(=O)N1CCN(Cc2ccn(Cc3ccc(Cl)cc3)c(=O)c2O)CC1` [hydrochloride, tert-butyl-{[1-(4-chlorobenzyl)-3-hydroxy-2-oxo-1,2-dihydropyridin-4-yl]methyl}-piperazine-1-carboxylate], the “Solubility” value in data set [1] was found to be 5900 µg/mL.

In the case of `COc1ccccc1Cn1ccc(CN2CCCCCC2)c(O)c1=O` [Compound A18, 1-(2-methoxybenzyl)-3-hydroxy-4-(azepan-1-ylmethyl)pyridin-2(1H)-one], the IC50 in the data set on VEGF (setting [3]) was 29.2 µM.

In the case of `CC1CCC(NCc2ccn(Cc3ccccc3)c(=O)c2O)CC1` (centres unmarked) [Compound C17, 1-benzyl-3-hydroxy-4-[(4-methylcyclohexylamino)methyl]pyridin-2(1H)-one], the IC50 in the data set on VEGF (setting [3]) was 27.4 µM.

Turning to `CSCCNCc1ccn(Cc2ccccc2)c(=O)c1O` [Compound C33, 1-benzyl-3-hydroxy-4-{[2-(methylthio)ethylamino]methyl}pyridin-2(1H)-one], the IC50 in the data set on VEGF (setting [3]) is 53 µM.

Consider `O=c1c(O)c(CNCc2ccccc2)ccn1Cc1ccc(Cl)cc1` [Compound C1, 1-(4-chlorobenzyl)-3-hydroxy-4-[(4-benzylamino)methyl]pyridin-2(1H)-one], for which the IC50 with VEGF (setting [3]) is 42 µM.

As for `CC(C)(C)OC(=O)N1CCN(Cc2ccn(Cc3ccc(Cl)cc3)c(=O)c2O)CC1` [Compound A41, tert-butyl 4-{[1-(4-chlorobenzyl)-3-hydroxy-2-oxo-1,2-dihydropyridin-4-yl]methyl}piperazine-1-carboxylate], in the data set on VEGF (HEK293, read-out: VEGF IC50 (μM)), the IC50 is 16.6 µM. Moreover, in data set [1] (distilled deionized water, sonicated 20 min, under 25° C., listed as Free base), the “Solubility” value was around 1 µg/mL.

With `NC(Cn1ccc(=O)c(O)c1)C(=O)O` (centres unmarked) [mimosine], in the data set with Staphylococcus aureus, the “capacity of human phagocytes and whole blood to kill Staphylococcus aureus” value is recorded as “boost”. In addition, in the data set on S. aureus, the lesion size entry is recorded as “reduce the lesion size”.

On to `CC(C)(C)OC(=O)N1CCN(Cc2ccn(Cc3ccc(Cl)cc3)c(=O)c2O)CC1` [p-toluenesulfonate, tert-butyl-{[1-(4-chlorobenzyl)-3-hydroxy-2-oxo-1,2-dihydropyridin-4-yl]methyl}-piperazine-1-carboxylate], for which, in data set [1], the “Solubility” value stood at 2300 µg/mL.

Regarding `O=c1c(O)c(CN2CCN(Cc3ccccc3)CC2)ccn1Cc1ccccc1` [Compound B9, 1-benzyl-3-hydroxy-4-[(4-benzyipiperazin-1-yl)methyl]pyridin-2(1H)-one], the IC50 in the data set on VEGF (setting [3]) is 12.6 µM.

For orientation: EC50 means the concentration that produces a half-maximal response. Consider `O=c1c(O)cccn1Cc1cccc(Cl)c1` [Compound F2, 1-(3-chlorobenzyl)-3-hydroxypyridin-2(1H)-one], for which the IC50 with VEGF (setting [3]) is above 100 µM. Further, the PGK expression entry in data set [2] was “up regulation”. In addition, in the data set with EPO, the EC50 came out at 14 µM.

As to `O=c1c(O)cccn1Cc1ccc(Cl)cc1` [Compound F3, 1-(4-chlorobenzyl)-3-hydroxypyridin-2(1H)-one], the IC50 in the data set with VEGF (setting [3]) is 7.4 µM.

Values taken from patent US10562854B2, “Prolyl hydroxylase inhibitors” (Aerpio Therapeutics, Inc., priority 2009, dated 2020).
